Data reported in paper PMC9296036, “A peptide interfering with the dimerization of oncogenic KITENIN protein and its stability suppresses colorectal tumour progression” (Clinical and Translational Medicine, 2022).

B1: endogenous KITENIN (natural protein, UniProt Q8TAA9 1-524, looked up)
chain: MDTESTYSGYSYYSSHSKKSHRQGERTRERHKSPRNKDGRGSEKSVTIQPPTGEPLLGNDSTRTEEVQDDNWGETTTAITGTSEHSISQEDIARISKDMEDSVGLDCKRYLGLTVASFLGLLVFLTPIAFILLPPILWRDELEPCGTICEGLFISMAFKLLILLIGTWALFFRKRRADMPRVFVFRALLLVLIFLFVVSYWLFYGVRILDSRDRNYQGIVQYAVSLVDALLFIHYLAIVLLELRQLQPMFTLQVVRSTDGESRFYSLGHLSIQRAALVVLENYYKDFTIYNPNLLTASKFRAAKHMAGLKVYNVDGPSNNATGQSRAMIAAAARRRDSSHNELYYEEAEHERRVKKRKARLVVAVEEAFIHIQRLQAEEQQKAPGEVMDPREAAQAIFPSMARALQKYLRITRQQNYHSMESILQHLAFCITNGMTPKAFLERYLSAGPTLQYDKDRWLSTQWRLVSDEAVTNGLRDGIVFVLKCLDFSLVVNVKKIPFIILSEEFIDPKSHKFVLRLQSETSV
notes: KITENIN (Vangl1), endogenous; also called endogenous KITENIN dimer; source: endogenous, HEK293T, HCT116 or Caco2 lysate
B2: V5-tagged KITENIN (natural protein, UniProt Q8TAA9 1-524, looked up)
chain: B1 chain
notes: KITENIN (Vangl1), wild type; also called KITENIN-V5; WT-KITENIN

Assays:
[1] = Detection of KDIP and truncated forms in tumour and liver tissue by LC-MS/MS (MRM) after intravenous injection; type: in vivo, mouse; settings: tissues collected 20 min after fifth intravenous injection of KDIP 5 mg/kg, below the limit of detection
Method: At 20 min after fifth intravenous injection of KDIP, tumour and liver tissues were collected, immediately frozen using liquid nitrogen and ground with a pestle and mortar. One part of resultant powder by weight was homogenized with two parts of lysis buffer containing 8‐M urea, 25‐mM Tris–HCl (pH 8.5) by volume and was placed in Eppendorf tubes. This lysate was sonicated three times for 2 s with 2‐s intervals of rest at 20% amplitude on ice. Insoluble debris was removed by obtaining supernatant after centrifugation at 14 000 g, 4°C for 15 min.
Peptide extraction from serum or tissue lysate was performed by solid‐phase extraction using Oasis HLB Cartridge 1‐cm^3 (30 mg). HLB cartridges were conditioned using ACN (1 ml) and 50% ACN, .5% FA (1 ml), followed by equilibration using .5% FA (2 ml). A volume of 10‐μl serum and 20 μl of tissue lysate were added by .5% FA to be 1 ml and were loaded on equilibrated cartridges. Cartridges were washed with .5% FA (3 ml), and then peptide was eluted by 50% ACN, .5% FA (500 μl). Eluates were vacuum‐dried using Speed‐Vac and were stored at −80°C until use. Dried samples were reconstituted in .5% FA 50 and 5 μl of sample was loaded on column for LC–MS/MS analysis.
Each sample was analysed using an Agilent 1100 Series high‐performance liquid chromatography pump (Agilent Technologies, USA) coupled to an LTQ linear ion trap mass spectrometer (Thermo Finnigan, USA). Separation of peptide was carried out on a homemade C18‐fused silica column (100‐μm internal diameter) with nano‐electrospray ionization interface. […] Peptide was quantified by multiple reaction monitoring (MRM) in positive ion mode, with a spray voltage of 2.3 kV. […] Furthermore, truncated forms ([…], […]) of KDIP that were detected during stability test were also analysed by following transitions: 468.5 → 404.8 (b16 ^+5), 468.5 → 444.85 (b18 ^+5), 468.5 → 505.7 (b16 ^+4), 468.5 → 551.35 (b18 + H2O^+4), 468.5 → 555.7 (b18 ^+4), 528.45 → 448.85 (b14 ^+4), 528.45 → 499.0 (b16 ^+4), 528.45 → 598.15 (b14 ^+3), 528.45 → 659.25 (b16 + H2O^+3) and 528.45 → 664.95 (b16 ^+3). […]

[2] = target: the molecule itself; assay: SDS-PAGE in the reducing/denaturing condition and Western blot; non-transfected HCT116 and Caco2 cells, regular SDS-PAGE gel, dimer-sized band
[3] = target: the molecule itself; assay: native gel or EMSA; lysates of Caco2 cells transfected with KITENIN-V5, with or without KDIP, on a native SDS-PAGE gel in the non-reducing/non-denaturing condition; immunoblot with anti-KITENIN antibody

Molecule	detection in regressed tumour tissues or liver by mass spectrometry [1]	further results
ARVRRRGPRRWRLVSDEAV [19‐mer, N-truncated form of KDIP found after incubation with mouse serum]	not detected	
VRRRGPRRWRLVSDEAV [17‐mer, N-truncated form of KDIP found after incubation with mouse serum]	not detected	
B1		stoichiometry N [2]: 2
B2		stoichiometry N [3]: 2
